These compounds were tested on 186277-243-T-J2-PDC spheroids with HUVEC/MSC, viability (assay: Anticancer human tumor 186277-243-T-J2-PDC patient-derived colon adenocarcinoma cell line growth inhibition [CLK]). Conditions: second compound 0.1 µM; first compound 10 µM; active compounds read low.
Method in brief: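 Patient-derived tumor cells grown as complex spheroids with HUVEC endothelial cells and mesenchymal stem cells, treated with drug combinations. Concentrations descend in half-log steps from near clinical Cmax, or from 10 microM if Cmax unknown.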
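Further: compound exposure lasted seven days before readout; 100% = DMSO vehicle control wells.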

Compound	viability, T/C
CCCS(=O)(=O)Nc1ccc(F)c(C(=O)c2c[nH]c3ncc(-c4ccc(Cl)cc4)cc23)c1F + CNC(=O)c1ccc(Nc2nc(OC3CCCC3)c3c(-c4ccc5nc(C)oc5c4)c[nH]c3n2)c(OC)c1	36.7%
O=C(c1cc(Cc2n[nH]c(=O)c3ccccc23)ccc1F)N1CCN(C(=O)C2CC2)CC1 + CN1CCN(c2cc(C(=O)Nc3cc4cc(-c5cnn(C)c5)ccc4cn3)ccn2)CC1	69%

Same assay, conditions: second compound 0.316 µM; first compound 0.00316 µM; active compounds read low

Compound	viability, T/C
CCc1c2c(nc3ccc(O)cc13)-c1cc3c(c(=O)n1C2)COC(=O)[C@]3(O)CC + CN1CCN(c2cc(C(=O)Nc3cc4cc(-c5cnn(C)c5)ccc4cn3)ccn2)CC1	17.9%

Same assay, conditions: second compound 0.316 µM; first compound 0.01 µM; active compounds read low

Compound	viability, T/C
CCc1c2c(nc3ccc(O)cc13)-c1cc3c(c(=O)n1C2)COC(=O)[C@]3(O)CC + CN1CCN(c2cc(C(=O)Nc3cc4cc(-c5cnn(C)c5)ccc4cn3)ccn2)CC1	19%

Same assay, conditions: second compound 0.316 µM; first compound 0.0316 µM; active compounds read low

Compound	viability, T/C
CCc1c2c(nc3ccc(O)cc13)-c1cc3c(c(=O)n1C2)COC(=O)[C@]3(O)CC + CN1CCN(c2cc(C(=O)Nc3cc4cc(-c5cnn(C)c5)ccc4cn3)ccn2)CC1	14.4%
CC1COCCN1c1cc(C2(S(C)(=N)=O)CC2)nc(-c2ccnc3[nH]ccc23)n1 (centres undefined) + CNC(=O)c1ccc(Nc2nc(OC3CCCC3)c3c(-c4ccc5nc(C)oc5c4)c[nH]c3n2)c(OC)c1	55.8%
CCCS(=O)(=O)Nc1ccc(F)c(C(=O)c2c[nH]c3ncc(-c4ccc(Cl)cc4)cc23)c1F + CNC(=O)c1ccc(Nc2nc(OC3CCCC3)c3c(-c4ccc5nc(C)oc5c4)c[nH]c3n2)c(OC)c1	50.8%
O=C(c1cc(Cc2n[nH]c(=O)c3ccccc23)ccc1F)N1CCN(C(=O)C2CC2)CC1 + CN1CCN(c2cc(C(=O)Nc3cc4cc(-c5cnn(C)c5)ccc4cn3)ccn2)CC1	24.6%

Same assay, conditions: second compound 0.316 µM; first compound 0.1 µM; active compounds read low

Compound	viability, T/C
CCc1c2c(nc3ccc(O)cc13)-c1cc3c(c(=O)n1C2)COC(=O)[C@]3(O)CC + CN1CCN(c2cc(C(=O)Nc3cc4cc(-c5cnn(C)c5)ccc4cn3)ccn2)CC1	8.65%
CC1COCCN1c1cc(C2(S(C)(=N)=O)CC2)nc(-c2ccnc3[nH]ccc23)n1 (centres undefined) + CNC(=O)c1ccc(Nc2nc(OC3CCCC3)c3c(-c4ccc5nc(C)oc5c4)c[nH]c3n2)c(OC)c1	57%
CCCS(=O)(=O)Nc1ccc(F)c(C(=O)c2c[nH]c3ncc(-c4ccc(Cl)cc4)cc23)c1F + CNC(=O)c1ccc(Nc2nc(OC3CCCC3)c3c(-c4ccc5nc(C)oc5c4)c[nH]c3n2)c(OC)c1	53%
O=C(c1cc(Cc2n[nH]c(=O)c3ccccc23)ccc1F)N1CCN(C(=O)C2CC2)CC1 + CN1CCN(c2cc(C(=O)Nc3cc4cc(-c5cnn(C)c5)ccc4cn3)ccn2)CC1	25.8%

Same assay, conditions: second compound 0.316 µM; first compound 0.316 µM; active compounds read low

Compound	viability, T/C
CCc1c2c(nc3ccc(O)cc13)-c1cc3c(c(=O)n1C2)COC(=O)[C@]3(O)CC + CN1CCN(c2cc(C(=O)Nc3cc4cc(-c5cnn(C)c5)ccc4cn3)ccn2)CC1	2.67%
CC1COCCN1c1cc(C2(S(C)(=N)=O)CC2)nc(-c2ccnc3[nH]ccc23)n1 (centres undefined) + CNC(=O)c1ccc(Nc2nc(OC3CCCC3)c3c(-c4ccc5nc(C)oc5c4)c[nH]c3n2)c(OC)c1	51.5%
CCCS(=O)(=O)Nc1ccc(F)c(C(=O)c2c[nH]c3ncc(-c4ccc(Cl)cc4)cc23)c1F + CNC(=O)c1ccc(Nc2nc(OC3CCCC3)c3c(-c4ccc5nc(C)oc5c4)c[nH]c3n2)c(OC)c1	58.7%
O=C(c1cc(Cc2n[nH]c(=O)c3ccccc23)ccc1F)N1CCN(C(=O)C2CC2)CC1 + CN1CCN(c2cc(C(=O)Nc3cc4cc(-c5cnn(C)c5)ccc4cn3)ccn2)CC1	23.1%

Same assay, conditions: second compound 0.316 µM; first compound 1 µM; active compounds read low

Compound	viability, T/C
CCc1c2c(nc3ccc(O)cc13)-c1cc3c(c(=O)n1C2)COC(=O)[C@]3(O)CC + CN1CCN(c2cc(C(=O)Nc3cc4cc(-c5cnn(C)c5)ccc4cn3)ccn2)CC1	1.34%
CC1COCCN1c1cc(C2(S(C)(=N)=O)CC2)nc(-c2ccnc3[nH]ccc23)n1 (centres undefined) + CNC(=O)c1ccc(Nc2nc(OC3CCCC3)c3c(-c4ccc5nc(C)oc5c4)c[nH]c3n2)c(OC)c1	39%
CCCS(=O)(=O)Nc1ccc(F)c(C(=O)c2c[nH]c3ncc(-c4ccc(Cl)cc4)cc23)c1F + CNC(=O)c1ccc(Nc2nc(OC3CCCC3)c3c(-c4ccc5nc(C)oc5c4)c[nH]c3n2)c(OC)c1	63.6%
O=C(c1cc(Cc2n[nH]c(=O)c3ccccc23)ccc1F)N1CCN(C(=O)C2CC2)CC1 + CN1CCN(c2cc(C(=O)Nc3cc4cc(-c5cnn(C)c5)ccc4cn3)ccn2)CC1	24.8%

Same assay, conditions: second compound 0.316 µM; first compound 3.16 µM; active compounds read low

Compound	viability, T/C
CC1COCCN1c1cc(C2(S(C)(=N)=O)CC2)nc(-c2ccnc3[nH]ccc23)n1 (centres undefined) + CNC(=O)c1ccc(Nc2nc(OC3CCCC3)c3c(-c4ccc5nc(C)oc5c4)c[nH]c3n2)c(OC)c1	15.8%
CCCS(=O)(=O)Nc1ccc(F)c(C(=O)c2c[nH]c3ncc(-c4ccc(Cl)cc4)cc23)c1F + CNC(=O)c1ccc(Nc2nc(OC3CCCC3)c3c(-c4ccc5nc(C)oc5c4)c[nH]c3n2)c(OC)c1	51.7%
O=C(c1cc(Cc2n[nH]c(=O)c3ccccc23)ccc1F)N1CCN(C(=O)C2CC2)CC1 + CN1CCN(c2cc(C(=O)Nc3cc4cc(-c5cnn(C)c5)ccc4cn3)ccn2)CC1	24.2%

Same assay, conditions: second compound 0.316 µM; first compound 10 µM; active compounds read low

Compound	viability, T/C
CC1COCCN1c1cc(C2(S(C)(=N)=O)CC2)nc(-c2ccnc3[nH]ccc23)n1 (centres undefined) + CNC(=O)c1ccc(Nc2nc(OC3CCCC3)c3c(-c4ccc5nc(C)oc5c4)c[nH]c3n2)c(OC)c1	10.5%
